Tests used:
Test in all cases: combination Emax (second highest fraction inhibited in the dose matrix, 72 h); higher = more inhibition; extreme values may be limits of the assay
[1] = tested on: CAL-62 (Thyroid Gland Carcinoma)
In short: (§1)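 Cell lines in DMEM/F12 or RPMI with 10% FBS were plated in 1536-well plates, held 24 hours at 37°C, 5% CO2, then given two-drug dose matrices for 72 hours (DMSO typically 0.2%). Viability was read by CellTiter-Glo 2.0 luminescence and scaled as inhibition from 0 (vehicle wells) to 1 (blank wells). Combination Emax is the second-highest inhibition in the matrix; Bliss excess is observed combination effect minus expected EA + EB − EA·EB, EA and EB being single-agent effects.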

[2] = tested on: FADU (Head and Neck Carcinoma)
In short: as §1

[3] = tested on: HEC-1 (Endometrial Carcinoma)
In short: as §1

[4] = tested on: KE-37 (T-Lymphoblastic Leukemia)
In short: as §1

[5] = tested on: L-1236 (Hodgkin's Lymphoma)
In short: as §1

LN-229 (Glioblastoma) = tested on: LN-229 (Glioblastoma)
In short: as §1

[6] = tested on: MFE-280 (Endometrial Carcinoma)
In short: as §1

[7] = tested on: NCI-H2342 (Lung Adenocarcinoma)
In short: as §1

[8] = tested on: NCI-H446 (Small Cell Lung Carcinoma)
In short: as §1

[9] = tested on: OAW-42 (Ovarian Carcinoma)
In short: as §1

[10] = tested on: OPM-2 (Plasma Cell Myeloma)
In short: as §1

[11] = tested on: PANC-03-27 (Pancreatic Carcinoma)
In short: as §1

[12] = tested on: PC-3_[JPC-3] (Lung Adenocarcinoma)
In short: as §1

[13] = tested on: RCM-1 (Colorectal Carcinoma)
In short: as §1

[14] = tested on: REH (B-Lymphoblastic Leukemia)
In short: as §1

SF268 (Low Grade Glioma) = tested on: SF268 (Low Grade Glioma)
In short: as §1

SF539 (Glioblastoma) = tested on: SF539 (Glioblastoma)
In short: as §1

[15] = tested on: SU-DHL-10 (B-Cell Non-Hodgkin's Lymphoma)
In short: as §1

[16] = tested on: TE-8 (Esophageal Squamous Cell Carcinoma)
In short: as §1

[17] = tested on: VAL (B-Cell Non-Hodgkin's Lymphoma)
In short: as §1

SMILES	combination Emax [1]	combination Emax [2]	combination Emax [3]	combination Emax [4]	combination Emax [5]	combination Emax (LN-229 (Glioblastoma))	combination Emax [6]	combination Emax [7]	combination Emax [8]	combination Emax [9]	combination Emax [10]	combination Emax [11]	combination Emax [12]	combination Emax [13]	combination Emax [14]	combination Emax (SF268 (Low Grade Glioma))	combination Emax (SF539 (Glioblastoma))	combination Emax [15]	combination Emax [16]	combination Emax [17]
CN(CCO)CC[C@H](CSc1ccccc1)Nc1ccc(S(=O)(=O)NC(=O)c2ccc(N3CCC([C@@H](O)c4ccccc4-c4ccc(Cl)cc4)CC3)cc2)cc1S(=O)(=O)C(F)(F)F [AZD4320] + CN(C)CCCOc1ccc(-c2ccc3ncc4c(c3c2)n(C2CCOCC2)c(=O)n4C)cn1 [AZD0156] (first compound max 1 µM, 7x7, partner max 1 µM)	0.228	0.124	0.372	1	0.992	0.142	0.891	0.27	0.663	0.261	0.687	0.33	0.238	0.435	1	0.291	0.27	0.144	0.181	1
CN(CCO)CC[C@H](CSc1ccccc1)Nc1ccc(S(=O)(=O)NC(=O)c2ccc(N3CCC([C@@H](O)c4ccccc4-c4ccc(Cl)cc4)CC3)cc2)cc1S(=O)(=O)C(F)(F)F [AZD4320] + C[C@@H]1COCCN1C2=NC(=NC(=C2)C3(CC3)[S@](=N)(=O)C)C4=C5C=CNC5=NC=C4 [AZD6738] (first compound max 1 µM, 7x7, partner max 10 µM)	0.936	0.583	0.613	1	0.992	0.797	0.88	0.377	0.941	0.748	0.927	0.926	0.375	0.862	1	0.78	0.959	0.899	0.799	1
CN(CCO)CC[C@H](CSc1ccccc1)Nc1ccc(S(=O)(=O)NC(=O)c2ccc(N3CCC([C@@H](O)c4ccccc4-c4ccc(Cl)cc4)CC3)cc2)cc1S(=O)(=O)C(F)(F)F [AZD4320] + C[C@@H](Nc1cc(F)cc(F)c1)c1cc(C(=O)N(C)C)cc2c(=O)cc(N3CCOCC3)oc12 [AZD8186] (first compound max 1 µM, 7x7, partner max 3 µM)	0.925	0.846	0.392	1	0.981	0.389	0.864	0.443	0.811	0.414	0.589	0.564	0.562	0.532	1	0.66	0.373	0.81	0.463	1
CN(CCO)CC[C@H](CSc1ccccc1)Nc1ccc(S(=O)(=O)NC(=O)c2ccc(N3CCC([C@@H](O)c4ccccc4-c4ccc(Cl)cc4)CC3)cc2)cc1S(=O)(=O)C(F)(F)F [AZD4320] + Cc1cc2ncnn2cc1Nc1ncc2c(n1)n(C1CCOCC1)c(=O)n2C [AZD7648] (first compound max 1 µM, 7x7, partner max 10 µM)	0.26	0.12	0.337	1	0.958	0.0793	0.774	0.27	0.699	0.348	0.71	0.177	0.243	0.351	1	0.164	0.214	0.474	0.193	1
COc1nnc2ccc(N3CCC(c4ccc(OCCN5CCN(C)C(=O)[C@H]5C)cc4)CC3)nn12 [AZD5153] + C=CCn1c(=O)c2cnc(Nc3ccc(N4CCN(C)CC4)cc3)nc2n1-c1cccc(C(C)(C)O)n1 [AZD1775] (first compound max 1 µM, partner max 1 µM)	0.79	0.592	0.827	0.978	0.999	0.431	0.383	0.711	0.962	0.615	1	0.604	0.58	0.667	0.926	0.637	0.944	1	0.654	0.792
COc1nnc2ccc(N3CCC(c4ccc(OCCN5CCN(C)C(=O)[C@H]5C)cc4)CC3)nn12 [AZD5153] + CC1(C)CCC(CN2CCN(c3ccc(C(=O)NS(=O)(=O)c4ccc(NCC5CCOCC5)c([N+](=O)[O-])c4)c(Oc4cnc5[nH]ccc5c4)c3)CC2)=C(c2ccc(Cl)cc2)C1 [Venetoclax] (first compound max 1 µM, 7x7, partner max 1 µM)	0.753	0.521	0.602	0.7	0.997	0.309	0.38	0.315	0.858	0.35	1	0.255	0.364	0.557	0.911	0.462	0.604	1	0.491	0.996
COc1nnc2ccc(N3CCC(c4ccc(OCCN5CCN(C)C(=O)[C@H]5C)cc4)CC3)nn12 [AZD5153] + CCN(CCO)CCCOc1ccc2c(Nc3cc(CC(=O)Nc4cccc(F)c4)[nH]n3)ncnc2c1 [AZD2811] (first compound max 1 µM, 7x7, partner max 1 µM)	0.774	0.533	0.607	1	0.988	0.411	0.348	0.433	0.962	0.459	1	0.179	0.425	0.612	0.903	0.609	0.699	1	0.556	0.727
COc1nnc2ccc(N3CCC(c4ccc(OCCN5CCN(C)C(=O)[C@H]5C)cc4)CC3)nn12 [AZD5153] + C[C@@H]1COCCN1C2=NC(=NC(=C2)C3(CC3)[S@](=N)(=O)C)C4=C5C=CNC5=NC=C4 [AZD6738] (first compound max 1 µM, 7x7, partner max 10 µM)	0.895	0.642	0.884	0.978	0.998	0.575	0.425	0.673	0.951	0.702	1	0.489	0.5	0.674	0.96	0.773	0.882	1	0.617	0.835
COc1nnc2ccc(N3CCC(c4ccc(OCCN5CCN(C)C(=O)[C@H]5C)cc4)CC3)nn12 [AZD5153] + Cc1c2c(nn1C)CSCc1cc(n(C)n1)CSc1cc(c3ccccc3c1)OCCCc1c(C(=O)O)n(C)c3c-2c(Cl)ccc13 [AZD5991] (first compound max 1 µM, 7x7, partner max 1 µM)	0.795	0.975	0.942	0.997	1	0.629	0.45	0.563	0.998	0.615	1	0.252	0.39	0.619	0.965	0.569	0.638	1	0.705	0.854
COc1nnc2ccc(N3CCC(c4ccc(OCCN5CCN(C)C(=O)[C@H]5C)cc4)CC3)nn12 [AZD5153] + Cn1cnc2c(F)c(Nc3ccc(Br)cc3Cl)c(C(=O)NOCCO)cc21 [Selumetinib] (first compound max 1 µM, 7x7, partner max 10 µM)	0.844	0.629	0.595	0.654	1	0.511	0.361	0.347	0.91	0.426	1	0.398	0.525	0.817	0.469	0.518	0.653	1	0.575	0.738
Cc1c2c(nn1C)CSCc1cc(n(C)n1)CSc1cc(c3ccccc3c1)OCCCc1c(C(=O)O)n(C)c3c-2c(Cl)ccc13 [AZD5991] + C1CN(CCC1(C(=O)N[C@@H](CCO)C2=CC=C(C=C2)Cl)N)C3=NC=NC4=C3C=CN4 [Capivasertib] (first compound max 1 µM, 7x7, partner max 3 µM)	0.152	1	0.0757	1	0.42	0.42	0.461	0.298	0.838	0.37	1	0.167	0.203	0.307	0.849	0.216	0.573	1	0.523	0.811
Cc1c2c(nn1C)CSCc1cc(n(C)n1)CSc1cc(c3ccccc3c1)OCCCc1c(C(=O)O)n(C)c3c-2c(Cl)ccc13 [AZD5991] + C=CCn1c(=O)c2cnc(Nc3ccc(N4CCN(C)CC4)cc3)nc2n1-c1cccc(C(C)(C)O)n1 [AZD1775] (first compound max 1 µM, partner max 1 µM)	0.766	0.963	0.247	0.995	0.824	0.855	0.469	0.306	0.941	0.502	1	0.926	0.466	0.536	0.877	0.577	1	1	0.818	0.887

From the supplement of paper PMC11061612
